Columns and labels:
[1] = tested on: DNMT1; experiment: DNMT enzyme activity in isolated nuclei (DNA methyltransferase assay kit); type: cell-based, human; conditions: A2780 nuclear extracts, 1 μM, 24 hr
Procedure: DNMT1 protein expression was measured by Western Blotting after exposure to RX-3117 for 24 or 48 hr. DNMT1 RNA expression was measured by real-time PCR after 24 and 48 hr exposure to RX-3117. DNMT enzyme activity was measured in isolated nuclei after exposure 1 μM RX-3117 or 5 μM aza-CdR using a DNA methyltransferase assay kit provided by EpiGentek using the ability of a CpG dinding domain to bind to methylated DNA. In A549 cells the effect of 5 μM RX-3117 on overall methylation was measured with a specific antibody against 5-methyl-cytosine. Bands on Western blots were visualized using appropriate InfraRedDye using an Odyssey InfraRed imager.

[2] = tested on: PCFT; experiment: PCFT mediated transport of radiolabeled MTX; type: cell-based, human; conditions: CEM cells, 24 hr; RX-3117 29.6 μM; DAC positive control
From the text: In this study, the following cell lines were used: (1) CCRF-CEM cells and its MTX resistant variant CEM-MTX, characterized by a deficiency of the reduced folate carrier (RFC) (Jansen G., et al., JBC 273 (1998) 30189-30198). The PCFT gene in CEM cells is highly methylated. (Gonen N., et al., BBRC 376 (2008) 787-92.); (2) CEM cells cultured in RPMI medium with 10% fetal bovine serum (FBS); and (3) A549 and SW1573 non-small cell lung cancer (NSCLC) and A2780 ovarian cancer cell lines cultured in DMEM medium with 10% FBS.
MTX transport was measured using radiolabeled MTX in CEM wild type and CEM-MTX cell lines. CEM cells have a high RFC activity. CEM-MTX are completely deficient in RFC-mediated transport. CEM cells have a highly methylated PCFT transporter and a very low PCFT mediated transport (Gonen N., et al., BBRC 376 (2008) 787-92). MTX transport at pH 7.4 is predominantly RFC mediated and less than 2% by PCFT. Folic acid was used to inhibit PCFT mediated transport. […] CEM and CEM-MTX cells were exposed to 29.6 μM RX-3117 and to 0, 19 μM aza-CdR as a positive control. MTX transport was measured after 24 hr to the drugs in a 3 minutes uptake assay using 2 μM [3′,5,′7-3H]-MTX.

[3] = Open-label dose-ranging study: pharmacokinetics, safety and tolerability of oral doses; type: in vivo, human; conditions: for AUC(0-t): AUC0-24
Procedure: In an open-label, dose-ranging study, the pharmacokinetics (PK) of RX-3117 at various oral doses was evaluated. Subjects with advanced malignant tumors were administered capsules containing RX-3117 at daily doses of 30 mg (N=1), 60 mg (N=1), 100 mg (N=3), 150 mg (N=3), 200 mg (N=3), 500 mg (N=3), 1000 mg (N=3), 1500 mg (N=4), and 2000 mg (N=5 to date) 3 times a week (TIWK) for 3 weeks with 1 week off during each 4 week cycle. Based on the continued safety profile, and to enhance weekly RX-3117 exposure, more frequent dosing was also implemented. In addition to the TIWK dosing scheme discussed above, subjects also received 500 mg and 700 mg 5 times a week, and 500 mg for 7 times a week for 3 weeks with 1 week off during each 4 week cycle. Dose escalation began with an accelerated design treating 1 subject per dose (Simon et al., J Natl. Cancer Inst., 89(15):1138-47 (1997) followed by a standard 3+3 design using a modified Fibonacci sequence after the occurrence of a single related Grade 2 or greater adverse event. Table 3 summarizes the dosing schedule.
The efficacy, safety and tolerability of RX-3117 at various doses and frequencies were evaluated (see Example 4, above). Subjects with advanced malignant tumors were administered capsules containing RX-3117 at various doses, from TIWK to 7 times per week for 3 weeks with 1 week off during each 4-week cycle. Dose escalation begins with an accelerated design treating 1 subject per dose (Simon et al., J. Natl. Cancer Inst., 89(15):1138-47 (1997) followed by a standard 3+3 design using a modified Fibonacci sequence after the occurrence of a single related Grade 2 or greater adverse event. Table 4 (above) summarizes the dosing schedule.

For Nc1ccn([C@@H]2C(F)=C(CO)[C@@H](O)[C@H]2O)c(=O)n1 [RX-3117, 4-amino-1-((1S,4R,5S)-2-fluoro-4,5-dihydroxy-3-hydroxymethyl-cyclopent-2-enyl)-1H-pyrimidin-2-one], the “inhibition of DNMT1 activity” value [1] was 32%, the “increase of PCFT mediated transport of MTX” value [2] was 4 fold and the “maximum tolerated dose (MTD)” value ([3]; 5 days per week, three weeks with 1 week off per 4-week cycle) was 700 mg daily. The maximal tolerated dose ([3]; Phase I clinical study, as stated in Example 7) was “higher than 2,000 mg/day”, the “apparent terminal T1/2, mean values” ([3]; human, in vivo) was 12.3 to 20.2 h and the dose limiting toxicities ([3]; human, in vivo) was “Grade 3 anemia, thrombocytopenia”. The “share of AUC0-t (0-24 hours) observed in the first 8 hours” value ([3]; human, in vivo) was “about half”, the “share of AUC observed by 24 hours” value ([3]; human, in vivo) was “over 80%” and the half-life ([3]; human, in vivo, apparent terminal T1/2, mean values) was 11.6 to 16.7 h. For the same compound, the Tmax ([3]; human, in vivo, po, 30 mg, Tmax) was 2 h, the AUC0-24 ([3]; human, in vivo, po, 60 mg) was 1164 ng·h/mL and the Cmax ([3]; human, in vivo, po, 60 mg) was 139 ng/mL. It also gave a T1/2 ([3]; human, in vivo, po, 60 mg) of 16.2 h, an AUC(0-t) ([3]; human, in vivo, po, 60 mg) of 1570 ng·h/mL and a Cmax ([3]; human, in vivo, po, 60 mg, Cmax) of 113 ng/mL. It also gave a half-life ([3]; human, in vivo, po, 60 mg, T1/2) of 15.7 h, a Tmax ([3]; human, in vivo, po, 60 mg, Tmax) of 4 h and an AUC0-24 ([3]; human, in vivo, po, 100 mg) of 2714 ng·h/mL. It also gave a Cmax ([3]; human, in vivo, po, 100 mg) of 357 ng/mL, a T1/2 ([3]; human, in vivo, po, 100 mg) of 15.4 h and an AUC(0-t) ([3]; human, in vivo, po, 100 mg) of 3290 ng·h/mL. For the same compound, the Cmax ([3]; human, in vivo, po, 100 mg, Cmax) was 460 ng/mL, the half-life ([3]; human, in vivo, po, 100 mg, T1/2) was 20.2 h and the Tmax ([3]; human, in vivo, po, 100 mg, Tmax) was 2 h. It also gave an AUC0-24 ([3]; human, in vivo, po, 150 mg) of 2437 ng·h/mL, a Cmax ([3]; human, in vivo, po, 150 mg) of 360 ng/mL and a T1/2 ([3]; human, in vivo, po, 150 mg) of 15.1 h. The AUC(0-t) ([3]; human, in vivo, po, 150 mg) was 3550 ng·h/mL, the Cmax ([3]; human, in vivo, po, 150 mg, Cmax) was 511 ng/mL and the half-life ([3]; human, in vivo, po, 150 mg, T1/2) was 13.9 h. For the same compound, the Tmax ([3]; human, in vivo, po, 150 mg, Tmax) was 3 h, the AUC0-24 ([3]; human, in vivo, po, 200 mg) was 4574 ng·h/mL and the Cmax ([3]; human, in vivo, po, 200 mg) was 643 ng/mL. The T1/2 ([3]; human, in vivo, po, 200 mg) was 16.2 h, the AUC(0-t) ([3]; human, in vivo, po, 200 mg) was 4720 ng·h/mL and the Cmax ([3]; human, in vivo, po, 200 mg, Cmax) was 637 ng/mL. The half-life ([3]; human, in vivo, po, 200 mg, T1/2) was 13.3 h, the Tmax ([3]; human, in vivo, po, 200 mg, Tmax) was 2 h and the Tmax ([3]; human, in vivo, po, 500 mg) was 2.5 h. For the same compound, the AUC(0-t) ([3]; human, in vivo, po, 500 mg) was 7920 ng·h/mL, the Cmax ([3]; human, in vivo, po, 500 mg, Cmax) was 1100 ng/mL and the Tmax ([3]; human, in vivo, po, 500 mg, Tmax) was 2 h. The AUC0-24 ([3]; human, in vivo, po, 700 mg) was 6321 ng·h/mL, the Cmax ([3]; human, in vivo, po, 700 mg) was 674 ng/mL and the T1/2 ([3]; human, in vivo, po, 700 mg) was 11.2 h. It also gave an AUC(0-t) ([3]; human, in vivo, po, 700 mg) of 8660 ng·h/mL, a Cmax ([3]; human, in vivo, po, 700 mg, Cmax) of 989 ng/mL and a half-life ([3]; human, in vivo, po, 700 mg, T1/2) of 9.05 h. It also gave a Tmax ([3]; human, in vivo, po, 700 mg, Tmax) of 3 h, an AUC0-24 ([3]; human, in vivo, po, 1000 mg) of 9753 ng·h/mL and a Cmax ([3]; human, in vivo, po, 1000 mg) of 1210 ng/mL. It also gave a T1/2 ([3]; human, in vivo, po, 1000 mg) of 14.9 h, an AUC(0-t) ([3]; human, in vivo, po, 1000 mg) of 12200 ng·h/mL and a Cmax ([3]; human, in vivo, po, 1000 mg, Cmax) of 1640 ng/mL. The half-life ([3]; human, in vivo, po, 1000 mg, T1/2) was 11.6 h, the Tmax ([3]; human, in vivo, po, 1000 mg, Tmax) was 2 h and the Cmax ([3]; human, in vivo, po, 1500 mg) was 883 ng/mL. It also gave a T1/2 ([3]; human, in vivo, po, 1500 mg) of 13.8 h, a Cmax ([3]; human, in vivo, po, 1500 mg, Cmax) of 1620 ng/mL and a half-life ([3]; human, in vivo, po, 1500 mg, T1/2) of 11.8 h. The Tmax ([3]; human, in vivo, po, 1500 mg, Tmax) was 3 h, the AUC0-24 ([3]; human, in vivo, po, 2000 mg) was 17403 ng·h/mL and the Cmax ([3]; human, in vivo, po, 2000 mg) was 1703 ng/mL. For the same compound, the T1/2 ([3]; human, in vivo, po, 2000 mg) was 12.1 h, the AUC(0-t) ([3]; human, in vivo, po, 2000 mg) was 17000 ng·h/mL and the Cmax ([3]; human, in vivo, po, 2000 mg, Cmax) was 1860 ng/mL. For the same compound, the half-life ([3]; human, in vivo, po, 2000 mg, T1/2) was 13.3 h, the Tmax ([3]; human, in vivo, po, 2000 mg, Tmax) was 3 h and the Tmax ([3]; human, in vivo, po, median Tmax) was 2 to 3 h. For the same compound, the accumulation ([3]; in vivo) was “generally minimal”, the “most frequent related adverse events” value ([3]; in vivo) was “moderate to severe anemia, mild to moderate fatigue and nausea, mild diarrhea, vomiting, and anorexia” and the “most frequently observed adverse events” value ([3]; in vivo) was “mild to moderate fatigue and nausea, mild diarrhea, mild vomiting, mild anorexia and moderate dehydration”.

— US10278971B2, “Fluorocyclopentenylcytosine methods of use” (Rexahn Pharmaceuticals, Inc., priority 2015, dated 2019)
